Entries after “also recorded” stand apart in the source; their conditions may differ.
Assays:
[1] = system: primary rat alveolar macrophages; assay: LPS-induced NO production by rat alveolar macrophages; assay type: cell-based; conditions: LPS 10 ng/ml, 24 h, liposomes; LPS without phospholipid = 100%
Protocol: FIG. 1. Anionic phospholipids inhibit inflammatory mediator production induced by LPS. Liposomes composed of sphingomyelin (SM), phosphatidylethanolamine (PE) dipalmitoyl-phosphatidylcholine ((DPPC), phosphatidylserine (PS), palmitoyl-oleoyl-phosphatidylglycerol (POPG) and phosphatidylinositol (PI) were formed by bath-sonication for 30 min at room temperature. LPS (10 ng/ml) and different concentrations of phospholipids were added to monolayer cultures of differentiated U937 cells (A), or primary rat alveolar macrophages (B). At 6 h after stimulation, media were collected and secreted TNF-α levels were determined in U937 cultures. NO production was determined 24 h after stimulating rat alveolar macrophages. LPS stimulation in the absence of phospholipid was set as 100%. […] The average TNF-α production upon LPS stimulation was (8.0±0.54 ng/ml). The average NO production upon LPS stimulation was 12.17±0.27 μM.
FIG. 2. The inhibitory effect of phosphatidylglycerols on LPS-induced inflammatory mediator production is molecular species specific. PG liposomes were formed by bath-sonication for 30 min at room temperature. LPS (10 ng/ml) and different concentrations of PG were added to monolayer cultures of differentiated U937 cells (A) or rat alveolar macrophages (B). Media TNF-α measurements were performed 6 h after stimulation. Media NO measurements were performed 24 h after stimulation. LPS stimulation without PG was set at 100%. The molecular species of PG shown on the graph are 8:0; dioctanoyl-phosphatidylglycerol, 12:0; dilauroyl-phosphatidylglycerol (DLPG), 14:0; dimyristoyl-phosphatidylglycerol (DMPG), 16:0; dipalmitoyl-phosphatidylglycerol (DPPG), 18:0; distearoyl-phosphatidylglycerol, 16:0/18:1; palmitoyl-oleoyl-phosphatidylglycerol (POPG). […] The average TNF-α production upon LPS stimulation was 11.3±0.7 ng/ml. The average NO production upon LPS stimulation was 10.1±0.6 μM.
Rat alveolar macrophages were isolated from bronchoalveolar lavage fluid (BALF) of Sprague-Dawley rats. The lungs were lavaged with pyrogen-free saline, and alveolar macrophages were sedimented by centrifugation at 150×g×5 min. Isolated macrophages were plated at 5×10^5 cells/well in 24-well plates (Falcon) in RPMI 1640 medium containing 10% BGS. The cells were allowed to adhere for 2 h and then used for the experiments after washing with phosphate-buffered-saline (PBS) to remove the unattached cells.
Nitric oxide (NO) accumulation in the supernatant was determined as previously reported (28). Briefly, rat alveolar macrophages were stimulated with LPS (10 ng/ml) or LPS plus phospholipids for 24 h. Culture supernatants (usually […]) were combined with an equal volume of Greiss reagent, and the samples were incubated at room temperature for 10 min before the absorbance was quantified at 550 nm. With the use of a standard curve, the nmol of NO produced were determined and normalized to total cell number in each sample.

[2] = system: BALB/c mice; assay: Lung inflammation induced by intratracheally administered LPS; conditions: LPS 1 μg + phospholipids 30 μg sprayed into trachea, 18 h
Protocol: A mixture of LPS (1 μg) and phospholipids (30 μg) in 20 μl of PBS was sprayed into murine trachea using a MicroSprayer™ aerosolizer. At 18 h after stimulation, lungs were lavaged via the trachea. TNF-α production (A) was determined by ELISA. The number of leukocytes was counted and differential cell counts (B) were determined from at least 300 cells on cytocentrifuged preparations. Mouse KC (C) and MIP-2 (D) secretion were determined using Quantikine kits (R&D System). The data shown are the means±S.E. from six to eight mice.
Human and mouse TNF-α ELISA kits were purchased from BioSource (Camarillo, Calif.). Mouse KC and MIP-2 Quantikine kits were purchased from R&D System. Measurements of these cytokines were according to the manufacturers' protocols.
Female BALB/c mice from 6 to 8 weeks of age were obtained from Jackson Laboratories (Bar Harbor, Me.). Experiments were conducted under a protocol approved by the Institutional Animal Care and Use Committee of the National Jewish Medical and Research Center. Liposomes were formed using a Liposofast™ (Avestin; Ottawa, Canada), which makes unilamellar liposomes of 100 nm of diameter, and then mixed with an aqueous solution containing LPS. The mixture of LPS and phospholipids was sprayed into murine trachea using a MicroSprayer™ aerosolizer (PennCentury, Philadelphia, Pa.) under isoflurene anesthesia. […] After stimulation, lungs were lavaged via the trachea with 1 ml of Hank's balanced salt solution (Invitrogen Corporation, Carlsbad, Calif.). The volume of collected BALF was measured in each sample and the number of leukocytes was counted (Coulter Counter; Coulter Corporation, Hialeah, Fla.). Differential cell counts were determined from at least 300 cells on cytocentrifuged preparations (Cytospin; Shandon Ltd., Runcorn, Cheshire, UK). Slides were stained with modified Wright-Giemsa (Hema; Protocol, Swedesboro, N.J.) and the cell populations differentiated by standard hematologic procedures. Cytokine levels in the BALF or in the supernatants of cultured airway macrophages were measured using ELISA kits.

[3] = system: human alveolar macrophages; assay: LPS-induced TNF-α production by primary human alveolar macrophages; assay type: cell-based; conditions: LPS 10 ng/ml, phospholipids 20 μg/ml, 6 h
Protocol: (§1) FIG. 8. POPG, DMPG and PI antagonize the effects of LPS on primary human alveolar macrophages. Human alveolar macrophages were isolated from healthy volunteer BALF and plated onto a 96-well plate. Two days after plating, 10 ng/ml of LPS and 20 μg/ml of phospholipids were added to monolayer cultures of human alveolar macrophages. 6 h after stimulation, media were collected and TNF-α production was determined by ELISA. LPS stimulation without phospholipid was set at 100%. […] The average TNF-α secretion after LPS stimulation was 30.7±15.1 ng/ml. Significance—**: p<0.01, when compared with LPS stimulation in the absence of POPG.
Human alveolar macrophages were isolated from BALF of healthy volunteers using protocols reviewed and approved by the National Jewish Medical Research Center IRB and the University of Colorado General Clinical Research Center. The lungs were lavaged with pyrogen-free saline, and alveolar macrophages were sedimented by centrifugation at 150×g×5 min. Isolated macrophages were plated at 5×10^4 cells/well in 96-well plates (Falcon) in RPMI 1640 medium containing 10% BGS. The cells were allowed to adhere for 48 h and then used for the experiments after washing with PBS to remove the unattached cells.
U937 cells were induced to differentiate by treatment with 10 nM phorbol myristate acetate (PMA) for 48 h. The cells (1.3×10^5/well) were placed in 96-well plates and further incubated in the absence of PMA for 24 h in RPMI 1640 medium containing 10% BGS. Rat alveolar macrophages (5×10^5/well) were incubated in 24-well plates for 2 h after isolation. The indicated concentration of phospholipids was added to the cultures 30 min before adding LPS. After LPS addition cultures were incubated for 6 h at 37° C. at an atmosphere of 95% air and 5% CO2. At the end of the incubation period the medium was collected and assayed for TNF-α concentrations using an ELISA kit.
as §1, with “Human” for “FIG. 8. POPG, DMPG and PI antagonize the effects of LPS on primary human alveolar macrophages. Human”, “phospholipids (POPG, DMPG and PI)” for “phospholipids”

Compound | LPS-induced NO production [1] | KC secretion in BALF [2] | LPS-induced neutrophil infiltration [2] | MIP-2 secretion in BALF [2] | TNF-α secretion in the lung (BALF) [2] | LPS-induced TNF-α production [3] | LPS-induced TNF-α production ([3]; listed as dimyristoyl PG)
CCCCCCCCCCCCCC(=O)OCC(COP(=O)(O)OCC(O)CO)OC(=O)CCCCCCCCCCCCC (stereo not shown) [DMPG, dimyristoyl-phosphatidylglycerol] | as potent as POPG | attenuated | modestly attenuated | attenuated | significantly attenuated | antagonize | markedly attenuate
CCCCCCCCCCCCCCCC(=O)OC[C@H](COP(=O)([O-])OCC[N+](C)(C)C)OC(=O)CCCCCCCCCCCCCCC [DPPC, dipalmitoyl-phosphatidylcholine, reference compound] | no significant effect | – | not | – | unaffected | no significant effect | –
CCCCCCCCCCCCCCCC(=O)OCC(COP(=O)(O)OCC(O)CO)OC(=O)CCCCCCCCCCCCCCC (stereo not shown) [DPPG, dipalmitoyl-phosphatidylglycerol, reference compound] | failed to antagonize | – | – | – | – | no significant effect | –
CCCCCCCC/C=C\CCCCCCCC(=O)O[C@H](COC(=O)CCCCCCCCCCCCCCC)COP(=O)(O)OCC(O)CO (stereo partly shown) [POPG, palmitoyl-oleoyl-phosphatidylglycerol] | significantly attenuated | especially POPG attenuated | modestly attenuated | especially POPG attenuated | significantly attenuated | markedly attenuate; also recorded: antagonize | –
phosphatidylinositol [PI] | significantly attenuated | attenuated | modestly attenuated | attenuated | significantly attenuated | markedly attenuate; also recorded: antagonize | –

Source: patent US10532066B2, “Surfactant lipids, compositions thereof, and uses thereof” (National Jewish Health, priority 2007, dated 2020)
